According to patent US12427151B2, “Compositions and method of treating cancer” (The Regents of the University of California, priority 2017, dated 2025):
Values after ≈ are worked out from the molar mass of the structure shown.

Tests used:
GAS [1] = assay: Antimicrobial activity against GAS in the presence of adenine; format: cell-based, group A Streptococcus; settings: 20 hrs, CFU
Protocol: (a) Time course killing of GAS in THB containing 6-HAP (25 μg/mL), mitomycin C (5 μg/mL), or LL-37 (10 μM). At each indicated time point, live GAS in the media was measured by counting CFU on an agar plate. The data represent mean±SE of four individual experiments. (b) Membrane permeability of GAS incubated in THB containing 6-HAP (25 μg/mL), mitomycin C (5 μg/mL) and LL-37 (10 μM) for 1 hr. The bacteria with compromised plasma membranes (Red) can be distinguished from those with intact membranes (Green). (c) BrdU incorporation into nascent DNA of GAS after incubation with 6-HAP (25 μg/mL) or mitomycin C (5 μg/mL) in THB containing BrdU (10 μM) for 30 or 60 min. (d) BrdU incorporation into nascent DNA of S. epidermidis ATCC12228 after incubation with 6-HAP (25 μg/mL) or mitomycin C (5 μg/mL) in THB containing BrdU (10 μM) for 60 min. The data represent mean±SE of five individual experiments (*P<0.05 and **P<0.01 by Student's t-test vs vehicle control). […] Extension reaction was analyzed on a 20% acrylamide gel by electrophoresis (f). […] GAS survival was measured by counting CFU. […]
We next assessed the effect of 6-HAP on DNA synthesis. […] To directly examine the action of 6-HAP on DNA extension in a cell free system, 25-bp templates and matching 18-bp fluorescence primers were designed to measure DNA extension in vitro by Klenow (exo) DNA polymerase (FIG. 4e).

[2] = tested on: normal human keratinocytes (NHEK); assay: Cell proliferation assay (BrdU incorporation); format: cell-based; settings: 24-hr incubation, until a very high dose (100 μg/mL)
Protocol: (§1) (a-b) Selective antiproliferative activity of 6-HAP against Pam212 squamous cell carcinoma, but not against normal keratinocytes. BrdU incorporation into Pam212 cells (b) or NHEKs (b) after 4-hr or 24-hr incubation, respectively, in suitable media containing indicated concentrations of 6-HAP or mitomycin C (10 μg/mL) (a). (c) Expression of mARC1 and mARC2 in NHEKs, squamous cell carcinoma (Pam212), melanoma (B16F10) and lymphoma cell lines (L5178). To compare relative expression level in each cells, data was shown as relative to GAPDH expression. (d) Expression of mARC1 and mARC2 in NHEKs treated with control siRNA, mARCI siRNA and mARC2 siRNA. (e) Effect of gene silencing with mARC1 and mARC2 siRNA on sensitivity to 6-HAP in NHEKs. NHEKs treated with each siRNA were incubated for 48 hrs and then incubated with 10 μg/mL of 6-HAP for 24 hrs.
(§2) Cell culture and cell proliferation assay. B16F10 mouse melanoma, Pam212, L5178 and YAC-1 mouse […] cell lines were obtained from American Type Culture Collection. […] After 4-hr (tumor cell lines) or 24-hr (NHEK) incubation with 6-HAP, proliferative activity of cells was colorimetrically determined by monitoring BrdU incorporation with Cell Proliferation kit according to the manual (Roche).

B16F10 melanoma = assay: Cell proliferation assay (BrdU incorporation); format: cell-based, mouse; settings: B16F10, 4-hr incubation
Protocol: (§3) Proliferative activity of tumor cell line, L5178 (a), YAC-1 lymphoma (b), B16F10 melanoma (c) after 4-hr incubation in suitable media containing indicated concentrations of 6-HAP or mitomycin C (10 μg/mL). Proliferative activity of cells was determined by monitoring BrdU incorporation. The data represent mean±SE of four individual experiments.
(§4) Cell culture and cell proliferation assay. B16F10 mouse melanoma, Pam212, L5178 and YAC-1 mouse […] cell lines were obtained from American Type Culture Collection. Pam212, L5178 and YAC-1 cell lines were maintained in RPMI-1640 supplemented with sodium pyruvate (1 mM), nonessential amino acids (0.1 mM), penicillin (100 unit/mL), streptomycin (100 μg/mL) and 10% heat-inactivated fetal bovine serum (FBS) or horse serum at 37° C. under atmosphere of 5% (v/v) CO2 in air. B16F10 cell line was maintained in DMEM supplemented with penicillin (100 unit/mL), streptomycin (100 μg/mL) and 10% heat-inactivated FBS. NHEKs were obtained from Invitrogen (Life technologies, Grand Island, NY) and maintained in EpiLife medium (Life technologies) supplemented with 60 μM Calcium, epidermal growth factors, penicillin and streptomycin. After 4-hr (tumor cell lines) or 24-hr (NHEK) incubation with 6-HAP, proliferative activity of cells was colorimetrically determined by monitoring BrdU incorporation with Cell Proliferation kit according to the manual (Roche).

L5178 lymphoma = assay: Cell proliferation assay (BrdU incorporation); format: cell-based, mouse; settings: L5178, 4-hr incubation
Protocol: as §3, §4

YAC-1 lymphoma = assay: Cell proliferation assay (BrdU incorporation); format: cell-based, mouse; settings: YAC-1, 4-hr incubation
Protocol: as §3, §4

[3] = tested on: Pam212 squamous cell carcinoma; assay: Cell proliferation assay (BrdU incorporation); format: cell-based, mouse; settings: Pam212, 4-hr incubation
Protocol: as §1, §2

M. luteus ATCC4698 = assay: MBC determination; format: cell-based; settings: Micrococcus luteus, 3-log reduction, 24 hour, 37° C., half strength MHB in PBS
GAS [4] = assay: Comparison of antimicrobial activity of natural and synthetic 6-HAP; format: cell-based, group A Streptococcus; settings: THB overnight, OD600
Protocol: GAS (1×10^5 CFU/mL) were incubated with indicated concentrations of purified 6-HAP or synthetic 6-HAP in THB overnight. Bacterial growth was monitored by measuring OD600 (relative % of growth index).
Structural analyses of antibiotic produced by S. epidermidis. High-resolution electrospray (ES)-mass spectrometry analysis of the purified antimicrobial fraction identified a molecule with a mass of 151.0487, predicting a molecular formula of C5H5N5O (calculated: 151.0489) (FIG. 3a). […] Given the chemical formula as C5H5N5O, the structure was predicted as 6-N-hydroxyaminopurine (6-HAP). To confirm this predicted structure we performed a chemical synthesis of 6-HAP. […] In addition, the fragmentation profile of natural compound by electron-impact MS (FIG. 3e) also matched that of synthetic product (FIG. 3f).

With `ONc1ncnc2nc[nH]c12` [6-HAP, 6-N-hydroxyaminopurine] as the molecule, how does the “antimicrobial activity against GAS on addition of excessive adenine” value (GAS [1]) read?
Its value is “partially decreased”.

What about the BrdU incorporation [2] of the same molecule?
Its BrdU incorporation is “not affected”.

And the BrdU incorporation (B16F10 melanoma)?
The BrdU incorporation was “inhibited”.

And the BrdU incorporation (L5178 lymphoma)?
The BrdU incorporation was “inhibited”.

And the BrdU incorporation (YAC-1 lymphoma)?
Its BrdU incorporation is “inhibited”.

What about the BrdU incorporation [3] of the same molecule?
Its BrdU incorporation is “inhibited”.

What about the MBC (M. luteus ATCC4698) of the same molecule?
The MBC was 12.5 µg/mL (≈ 82.7 µM).

What about the “antimicrobial activity against GAS, synthetic versus natural product” value (GAS [4]) of the same molecule?
Its value is “comparable to that of natural product”.
